In the NIST ThermoML archive (doi:10.1016/j.jct.2018.11.004):

Experiment: molar heat capacity at constant pressure

CC(C)[C@@H]1CC[C@@H](C)C[C@H]1O [L-menthol]
Settings | molar heat capacity at constant pressure [J/K/mol]
5 K, 101.33 kPa, Crystal 1, Small (less than 1 g) adiabatic calorimetry | 0.858
10 K, 101.33 kPa, Crystal 1, Small (less than 1 g) adiabatic calorimetry | 5.528
15 K, 101.33 kPa, Crystal 1, Small (less than 1 g) adiabatic calorimetry | 12.7
20 K, 101.33 kPa, Crystal 1, Small (less than 1 g) adiabatic calorimetry | 20.26
25 K, 101.33 kPa, Crystal 1, Small (less than 1 g) adiabatic calorimetry | 27.36
30 K, 101.33 kPa, Crystal 1, Small (less than 1 g) adiabatic calorimetry | 33.65
35 K, 101.33 kPa, Crystal 1, Small (less than 1 g) adiabatic calorimetry | 39.12
40 K, 101.33 kPa, Crystal 1, Small (less than 1 g) adiabatic calorimetry | 44.06
45 K, 101.33 kPa, Crystal 1, Small (less than 1 g) adiabatic calorimetry | 48.69
50 K, 101.33 kPa, Crystal 1, Small (less than 1 g) adiabatic calorimetry | 53.14
55 K, 101.33 kPa, Crystal 1, Small (less than 1 g) adiabatic calorimetry | 57.47
60 K, 101.33 kPa, Crystal 1, Small (less than 1 g) adiabatic calorimetry | 61.81
65 K, 101.33 kPa, Crystal 1, Small (less than 1 g) adiabatic calorimetry | 66.15
70 K, 101.33 kPa, Crystal 1, Small (less than 1 g) adiabatic calorimetry | 70.48
75 K, 101.33 kPa, Crystal 1, Small (less than 1 g) adiabatic calorimetry | 74.81
80 K, 101.33 kPa, Crystal 1, Small (less than 1 g) adiabatic calorimetry | 79.11
85 K, 101.33 kPa, Crystal 1, Small (less than 1 g) adiabatic calorimetry | 83.38
90 K, 101.33 kPa, Crystal 1, Small (less than 1 g) adiabatic calorimetry | 87.62
95 K, 101.33 kPa, Crystal 1, Small (less than 1 g) adiabatic calorimetry | 91.81
100 K, 101.33 kPa, Crystal 1, Small (less than 1 g) adiabatic calorimetry | 95.95
105 K, 101.33 kPa, Crystal 1, Small (less than 1 g) adiabatic calorimetry | 100
110 K, 101.33 kPa, Crystal 1, Small (less than 1 g) adiabatic calorimetry | 104
115 K, 101.33 kPa, Crystal 1, Small (less than 1 g) adiabatic calorimetry | 108
120 K, 101.33 kPa, Crystal 1, Small (less than 1 g) adiabatic calorimetry | 111.8
125 K, 101.33 kPa, Crystal 1, Small (less than 1 g) adiabatic calorimetry | 115.7
130 K, 101.33 kPa, Crystal 1, Small (less than 1 g) adiabatic calorimetry | 119.4
135 K, 101.33 kPa, Crystal 1, Small (less than 1 g) adiabatic calorimetry | 123.1
140 K, 101.33 kPa, Crystal 1, Small (less than 1 g) adiabatic calorimetry | 126.8
145 K, 101.33 kPa, Crystal 1, Small (less than 1 g) adiabatic calorimetry | 130.4
150 K, 101.33 kPa, Crystal 1, Small (less than 1 g) adiabatic calorimetry | 134
155 K, 101.33 kPa, Crystal 1, Small (less than 1 g) adiabatic calorimetry | 137.5
160 K, 101.33 kPa, Crystal 1, Small (less than 1 g) adiabatic calorimetry | 141.1
165 K, 101.33 kPa, Crystal 1, Small (less than 1 g) adiabatic calorimetry | 144.6
170 K, 101.33 kPa, Crystal 1, Small (less than 1 g) adiabatic calorimetry | 148.1
175 K, 101.33 kPa, Crystal 1, Small (less than 1 g) adiabatic calorimetry | 151.6
180 K, 101.33 kPa, Crystal 1, Small (less than 1 g) adiabatic calorimetry | 155.1
185 K, 101.33 kPa, Crystal 1, Small (less than 1 g) adiabatic calorimetry | 158.6
190 K, 101.33 kPa, Crystal 1, Small (less than 1 g) adiabatic calorimetry | 162.2
195 K, 101.33 kPa, Crystal 1, Small (less than 1 g) adiabatic calorimetry | 165.7
200 K, 101.33 kPa, Crystal 1, Small (less than 1 g) adiabatic calorimetry | 169.3
205 K, 101.33 kPa, Crystal 1, Small (less than 1 g) adiabatic calorimetry | 172.8
210 K, 101.33 kPa, Crystal 1, Small (less than 1 g) adiabatic calorimetry | 176.4
215 K, 101.33 kPa, Crystal 1, Small (less than 1 g) adiabatic calorimetry | 180
220 K, 101.33 kPa, Crystal 1, Small (less than 1 g) adiabatic calorimetry | 183.7
225 K, 101.33 kPa, Crystal 1, Small (less than 1 g) adiabatic calorimetry | 187.4
230 K, 101.33 kPa, Crystal 1, Small (less than 1 g) adiabatic calorimetry | 191.1
235 K, 101.33 kPa, Crystal 1, Small (less than 1 g) adiabatic calorimetry | 194.9
240 K, 101.33 kPa, Crystal 1, Small (less than 1 g) adiabatic calorimetry | 198.7
245 K, 101.33 kPa, Crystal 1, Small (less than 1 g) adiabatic calorimetry | 202.5
250 K, 101.33 kPa, Crystal 1, Small (less than 1 g) adiabatic calorimetry | 206.5
255 K, 101.33 kPa, Crystal 1, Small (less than 1 g) adiabatic calorimetry | 210.7
260 K, 101.33 kPa, Crystal 1, Small (less than 1 g) adiabatic calorimetry | 215.1
265 K, 101.33 kPa, Crystal 1, Small (less than 1 g) adiabatic calorimetry | 219.5
265.2 K, 100 kPa, Crystal 1, Extra sensitive DSC | 221.5
270 K, 100 kPa, Crystal 1, Extra sensitive DSC | 225.6
270 K, 101.33 kPa, Crystal 1, Small (less than 1 g) adiabatic calorimetry | 223.9
275 K, 100 kPa, Crystal 1, Extra sensitive DSC | 230
275 K, 101.33 kPa, Crystal 1, Small (less than 1 g) adiabatic calorimetry | 228.2
280 K, 100 kPa, Crystal 1, Extra sensitive DSC | 235.1
280 K, 101.33 kPa, Crystal 1, Small (less than 1 g) adiabatic calorimetry | 232.4
285 K, 100 kPa, Crystal 1, Extra sensitive DSC | 240.5
285 K, 101.33 kPa, Crystal 1, Small (less than 1 g) adiabatic calorimetry | 236.7
290 K, 100 kPa, Crystal 1, Extra sensitive DSC | 246.3
290 K, 101.33 kPa, Crystal 1, Small (less than 1 g) adiabatic calorimetry | 241.5
295 K, 100 kPa, Crystal 1, Extra sensitive DSC | 253.1
295 K, 101.33 kPa, Crystal 1, Small (less than 1 g) adiabatic calorimetry | 246.7
298.15 K, 101.33 kPa, Crystal 1, Small (less than 1 g) adiabatic calorimetry | 250.1
300 K, 101.33 kPa, Crystal 1, Small (less than 1 g) adiabatic calorimetry | 252.3
305 K, 101.33 kPa, Crystal 1, Small (less than 1 g) adiabatic calorimetry | 258.3
310 K, 101.33 kPa, Crystal 1, Small (less than 1 g) adiabatic calorimetry | 264.6
315 K, 101.33 kPa, Crystal 1, Small (less than 1 g) adiabatic calorimetry | 271.4
315.6 K, 101.33 kPa, Crystal 1, Small (less than 1 g) adiabatic calorimetry | 272.3

Liquid
Settings | molar heat capacity at constant pressure [J/K/mol]
315.6 K, 101.33 kPa, Small (less than 1 g) adiabatic calorimetry | 376.1
320 K, 101.33 kPa, Small (less than 1 g) adiabatic calorimetry | 383.1
325 K, 101.33 kPa, Small (less than 1 g) adiabatic calorimetry | 390.8
325.9 K, 100 kPa, Extra sensitive DSC | 395.1
330 K, 100 kPa, Extra sensitive DSC | 401.1
330 K, 101.33 kPa, Small (less than 1 g) adiabatic calorimetry | 398.1
335 K, 100 kPa, Extra sensitive DSC | 408
335 K, 101.33 kPa, Small (less than 1 g) adiabatic calorimetry | 404.9
340 K, 100 kPa, Extra sensitive DSC | 414.3
340 K, 101.33 kPa, Small (less than 1 g) adiabatic calorimetry | 411.3
345 K, 100 kPa, Extra sensitive DSC | 420.5
345 K, 101.33 kPa, Small (less than 1 g) adiabatic calorimetry | 417.1
350 K, 100 kPa, Extra sensitive DSC | 426.2
350 K, 101.33 kPa, Small (less than 1 g) adiabatic calorimetry | 422.3
355 K, 100 kPa, Extra sensitive DSC | 430.8
355 K, 101.33 kPa, Small (less than 1 g) adiabatic calorimetry | 427
360 K, 101.33 kPa, Small (less than 1 g) adiabatic calorimetry | 431
365 K, 101.33 kPa, Small (less than 1 g) adiabatic calorimetry | 434.3
370 K, 101.33 kPa, Small (less than 1 g) adiabatic calorimetry | 437
